Data as given in ChEMBL document CHEMBL1126475, “Synthesis of a potent and selective non-peptide CCK-B/gastrin receptor antagonist tritiated ligand” (Bioorg Med Chem Lett, 1993).

Tests used:
[1] = species on record: Rattus norvegicus; assay: Antagonistic activity against excitations of rat ventromedial hyphalamic neurones evoked in CCK-B; assay type: functional
[2] = target: T1, Cholecystokinin receptor type A (Rattus norvegicus, UniProt P30551); assay: The compound was evaluated for the inhibition of binding of [125I]Bolton-Hunter CCK-8 to Cholecystokinin type A receptor in the rat pancreas.
T1 sequence (P30551 whole entry): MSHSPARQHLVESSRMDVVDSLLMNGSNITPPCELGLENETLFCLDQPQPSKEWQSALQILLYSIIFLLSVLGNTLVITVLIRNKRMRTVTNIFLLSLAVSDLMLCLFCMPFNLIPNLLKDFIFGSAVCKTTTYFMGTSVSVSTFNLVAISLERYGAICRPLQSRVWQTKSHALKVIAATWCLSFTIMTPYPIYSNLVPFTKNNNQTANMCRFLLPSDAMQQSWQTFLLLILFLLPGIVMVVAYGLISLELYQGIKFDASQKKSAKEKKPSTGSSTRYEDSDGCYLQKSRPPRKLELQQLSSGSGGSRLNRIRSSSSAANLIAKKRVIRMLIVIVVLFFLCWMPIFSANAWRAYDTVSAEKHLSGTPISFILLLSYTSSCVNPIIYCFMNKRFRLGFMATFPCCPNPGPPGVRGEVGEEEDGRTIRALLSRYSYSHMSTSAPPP

[3] = Tested for dissociation constant of the compound; Value ranges from 0.1-0.3; assay type: ADME
[4] = target: T2, Gastrin/cholecystokinin type B receptor (Rattus norvegicus) (UniProt P30553); assay: Specific activity for Cholecystokinin type B receptor in 10e5 AR42J cells was determined for the compound.; assay type: cell-based; settings: AR-42J
T2 sequence (whole entry): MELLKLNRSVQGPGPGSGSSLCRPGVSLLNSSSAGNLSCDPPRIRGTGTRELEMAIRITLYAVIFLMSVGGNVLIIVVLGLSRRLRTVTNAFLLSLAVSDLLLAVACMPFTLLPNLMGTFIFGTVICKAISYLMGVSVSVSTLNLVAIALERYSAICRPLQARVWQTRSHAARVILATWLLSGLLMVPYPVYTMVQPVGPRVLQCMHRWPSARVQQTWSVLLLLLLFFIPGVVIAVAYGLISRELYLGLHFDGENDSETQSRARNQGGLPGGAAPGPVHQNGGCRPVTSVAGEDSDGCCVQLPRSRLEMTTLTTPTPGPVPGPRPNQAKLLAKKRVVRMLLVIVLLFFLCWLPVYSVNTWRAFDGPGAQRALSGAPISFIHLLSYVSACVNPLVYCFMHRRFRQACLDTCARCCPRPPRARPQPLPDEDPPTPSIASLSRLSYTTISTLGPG

[5] = target: T3, Gastrin/cholecystokinin type B receptor (Mus musculus, UniProt P56481); assay: The compound was evaluated for the inhibition of binding of [3H]-PD 140376 to Cholecystokinin type B receptor in mouse cortex.
T3 sequence (P56481 whole entry): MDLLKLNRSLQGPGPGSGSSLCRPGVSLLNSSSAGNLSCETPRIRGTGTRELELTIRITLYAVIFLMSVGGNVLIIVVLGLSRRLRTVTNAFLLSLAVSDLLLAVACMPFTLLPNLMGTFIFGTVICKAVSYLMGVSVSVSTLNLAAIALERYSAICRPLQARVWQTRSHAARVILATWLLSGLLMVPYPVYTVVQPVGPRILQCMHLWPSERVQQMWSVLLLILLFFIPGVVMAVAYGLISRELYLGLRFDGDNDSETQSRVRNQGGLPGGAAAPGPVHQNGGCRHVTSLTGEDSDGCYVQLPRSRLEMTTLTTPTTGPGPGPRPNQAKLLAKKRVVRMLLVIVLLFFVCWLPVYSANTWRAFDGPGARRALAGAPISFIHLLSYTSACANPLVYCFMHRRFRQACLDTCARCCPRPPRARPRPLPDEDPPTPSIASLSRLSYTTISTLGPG

Ki [2] [nM]	Kd [3] [nM]	Bmax (fmol/10^5 cells) [4]	Ki [5] [nM]	Structure (SMILES)	Ke [1] [nM]
				CSCC[C@H](NC(=O)[C@H](Cc1c[nH]c2ccccc12)NC(=O)CCNC(=O)OC(C)(C)C)C(=O)N[C@@H](CC(=O)O)C(=O)N[C@@H](Cc1ccccc1)C(N)=O [PENTAGASTRIN]	1.4
350	0.1	31	0.2	C[C@](Cc1c[nH]c2ccccc12)(NC(=O)OC1C2CC3CC(C2)CC1C3)C(=O)N[C@@H](CC(=O)O)Cc1ccc(N)cc1 (stereo not given in full)	
